What was measured:
MRSA strain USA300#757 = assay: Fractional Inhibitory Concentration Index (FICI) determination; type: cell-based, S. aureus
Experimental: The bacterial strains used in this study were clinically isolated MRSA strains USA300#757 and #2960 which were obtained from our laboratory. Determination of the Fractional Inhibitory Concentration Index (FICI) was adopted by the Müller-Hinton broth (MHB) dilution method as previously described. Twelve serial two-fold dilutions of PC190723, F332 and F361 were prepared in the 96-well microplate with concentration ranging from 512 to 0.25 μg/mL. […] Lastly, the compounds and the β-lactams were mixed at a 1:1 ratio and subjected to two-fold dilution as described previously. Each microplate well contained 100 μL of MHB supplemented with compounds alone, β-lactams alone or the mixture of compounds and β-lactams. Overnight cultures of S. aureus in the Müller-Hinton broth was diluted to OD595 of 0.08-0.1 in saline and added in each of the microplate well. The plates were incubated at 37° C. for 20 h. All tests were performed in duplicate and the inhibition of bacterial growth was determined by visualization. The FICI of compounds and β-lactams were calculated as followed: FICI=(MIC of combination of compound and β-lactam/MIC of compound alone)+(MIC of combination of compound and β-lactam/MIC of β-lactam alone).

B. subtilis 168 cells = assay: Effects on the morphology of B. subtilis cells; type: cell-based; settings: for average cell length of B. subtilis: compound at half of MIC (1.56 μM F332, 0.78 μM F361), untreated 3.5±0.7 μm; for average cell length of B. subtilis / lengthening of cell length of B. subtilis versus untreated: 4 hours; for lengthening of cell length of B. subtilis versus untreated: compound at half of MIC; for filamentation of B. subtilis 168 cells: sub-lethal concentrations
Experimental: The log-phase culture of B. subtilis was tested with the two compounds with a final concentration of half of MIC value. A 1% DMSO solution was used as the control.

[1] = test system: LCC6 (wild type breast cancer cell line); assay: Cytotoxicity test (MTS/PMS); type: cell-based; settings: LCC-6, 72 h; 3 days at 37° C.
Text: (§1) The bacterial strains used in microbial susceptibility test were E. coli, S. aureus 29213 and B. subtilis 168. E. coli and S. aureus 29213 were obtained from the laboratory of the Hong Kong Polytechnic University. B. subtilis 168 was purchased from American Type Culture Collection (USA). The mammalian cell lines L929 (mouse peritoneal fibroblast), LCC6 (a wild type breast cancer cell line), LCC6MDR (P-gp over-expressed breast cancer cell line) were stocks in our department. Nutrient Agar, tryptone and yeast extract were purchased from Oxoid Limited (Nepean, Ontario, Canada). Luria-Bertani (LB) medium was prepared from 2 g tryptone, 1 g yeast extract, and 2 g sodium chloride in 200 ml deionized water and sterilized. Müller-Hinton broth (MHB), cation-adjusted Müller-Hinton broth (MHB) and trypticase soy broth (TSB) for microbial susceptibility test were purchased from Becton, Dickinson and Company (New Jersey, USA). A microplate reader (Bio-Rad Laboratories Model 680) is used to measure bacterial growth and cytotoxicity. An Olympus FSX100® Bio Imaging Navigator Microscope was used to observe the morphology of B. subtilis cell. The cell lines used in cytotoxicity test were stocks in our department. In this assay, a mouse fibroblast cell line (L929), a wild type breast cancer cell line (LCC6) and a P-gp-over-expressed breast cancer cell line (LCC6MDR) were mixed with compounds of various concentrations and made up to a final volume of 100 μL in 96-well plates. The cells were then incubated at 37° C. for 3 days. […] The MTS/PMS mixture (10 μL) was added into each well, and the plate was incubated at 37° C. for 2 hours. The absorbance at 490 nm was then measured with a microplate absorbance reader (Bio-Rad). The IC50 values were calculated using GraphPad (Prism 4.0). The selective index of each compound was calculated from the ratio between the toxicity level of L929 and the MIC value of S. aureus 29213. […] Two promising compounds […] were chosen to test on three mammalian cell lines.

[2] = test system: L929 (mouse fibroblast cell line); assay: Cytotoxicity test (MTS/PMS); type: cell-based; settings: L929, 72 h, 3 days at 37° C.
Text: as §1

[3] = Cytotoxicity test (MTS/PMS); type: cell-based; settings: human, LCC6MDR cells (P-gp over-expressed breast cancer cell line); 3 days at 37° C.
Text: as §1

S. aureus FtsZ = molecular target: T1, S. aureus FtsZ (Staphylococcus aureus, UniProt P0A031); assay: Transmission electron microscopy of FtsZ polymer morphology; type: biochemical; settings: 100 μM compound, GTP 1 mM, 37° C. 15 minutes
T1 construct: inferred from capture on a nickel chelating column and imidazole elution; made in house; host or cells: E. coli BL21
T1 sequence (P0A031 1-390): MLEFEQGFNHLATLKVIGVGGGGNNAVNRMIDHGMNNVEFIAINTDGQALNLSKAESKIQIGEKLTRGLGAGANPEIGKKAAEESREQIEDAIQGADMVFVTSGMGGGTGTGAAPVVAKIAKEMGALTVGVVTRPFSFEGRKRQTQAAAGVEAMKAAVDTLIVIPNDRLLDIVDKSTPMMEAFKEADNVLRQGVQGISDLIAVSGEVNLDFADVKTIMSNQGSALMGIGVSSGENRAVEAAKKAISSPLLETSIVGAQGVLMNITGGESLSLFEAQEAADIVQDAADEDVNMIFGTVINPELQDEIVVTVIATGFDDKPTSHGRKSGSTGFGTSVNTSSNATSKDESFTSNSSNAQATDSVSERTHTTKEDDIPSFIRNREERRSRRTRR
Experimental: TEM provides a direct observation of FtsZ polymer morphology. Two promising compounds F332 and F361 were chosen for testing. S. aureus FtsZ ([…]) was incubated with the compounds at different concentrations in 50 mM MOPS buffer (pH 6.5) at 25° C. for 10 minutes. The control contained 1% DMSO only. KCl (final concentration: 50 mM) and MgCl2 (final concentration: 5 mM) were then added to the mixture. The mixture was incubated with GTP (final concentration: 1 mM) at 37° C. for 15 minutes. 10 μL reaction mixtures were applied on a glow-discharged Formvar carbon-coated copper grid (400 meshes) at 25° C. for 10 minutes. 10 μL of 0.5% phosphotungistic acid (PTA) was applied on the copper grid in order to negatively stain the proteins. The copper grid was allowed to air dry overnight.

Row | SMILES | FICI with Ampicillin (MRSA strain USA300#757) | FICI with Cefotaxime (MRSA strain USA300#757) | FICI with Cefuroxime (MRSA strain USA300#757) | FICI with Cloxacillin (MRSA strain USA300#757) | FICI with Meropenem (MRSA strain USA300#757) | average cell length of B. subtilis (B. subtilis 168 cells) [μm] | lengthening of cell length of B. subtilis versus untreated (B. subtilis 168 cells) | filamentation of B. subtilis 168 cells (B. subtilis 168 cells) | IC50 [1] [µM] | IC50 [2] [µM] | IC50 at 3 days [3] [µM] | FtsZ polymer morphology (TEM) (S. aureus FtsZ)
1 | CCCCCCCCCNc1ccc(F)c(C(N)=O)c1F [Compound F332, 2,6-difluoro-3-(nonylamino)benzamide] | 0.52 | 0.13 | 0.09 | 1.02 | 1.06 | 11.7±4.5 | three-fold lengthening | cause filamentation | 78 | > 100 | > 100 | relatively short and straight single strand FtsZ protofilaments
2 | CCCCCCCCCN(C)c1ccc(F)c(C(N)=O)c1F [Compound F361, 2,6-difluoro-3-(methyl(nonyl)amino)benzamide] |  | 0.38 |  |  | 1.13 | 21.1±1.8 | six-fold lengthening | cause filamentation | 60 | 60 | 52 | relatively short and straight single strand FtsZ protofilaments
